The subject of assay [1] is WI38 normal lung fibroblasts. The experiment in a line: CellTiter-Glo luminescent cell viability assay. Format: cell-based, human. The conditions noted are these: 72 hours. How it is done: (§1) Cells were seeded in 96-well plates at a density of 5×10^3 cells per well. 20 μL of CellTiter-Glo® Reagent was added directly to the wells, following the manufacturer's protocol, and bioluminescence signal was determined using an IVIS imaging system.
Cell lines at a concentration of 4×10^3 cells/well were seeded out on an opaque 96-well plate and treated with CB002 and Analog 11 in ranging doses starting from 200 μmol/L with DMSO controls. At 72 hours after treatment, cells were mixed with 30 μL Cell Titer-Glo reagent and after ten minutes of room temperature incubation were imaged using IVIS imaging system (Xenogen).
(§2) To begin establishing the potential of CB002 as a candidate therapeutic agent, its therapeutic index was determined by treating cancer (DLD-1, SW480, and RXF393) and normal (WI38 and MRC5) cell lines with concentrations of CB002 ranging from 0-500 μM for a period of 72 hours and assessing cell viability by the CellTiter-Glo® luminescence assay (see, FIG. 2). CB002 has a significant therapeutic index among the cells tested.
(In general: Cellular ATP, detected with luciferase, serves as a proxy for viable cell number.)

The test system of assay [2] is normal (WI38 and MRC5) cell lines. Nature of the assay: CellTiter-Glo cell viability, normal cell lines (summary). Format: cell-based. The conditions noted are these: Homo sapiens; 72 hours. How it is done:
as §1, §2

Assay [3] deals with cancer (DLD-1, SW480, and RXF393) cell lines. Nature of the assay: CellTiter-Glo cell viability, panel of cancer cell lines (summary). Format: cell-based. The conditions noted are these: Homo sapiens; 72 hours. The protocol: as §1, §2
The test system of assay [4] is p53 reporter (PG13-luc) in DLD-1 cells. The experiment in a line: luciferase-based p53-reporter activity assay. Format: cell-based, human. The note with it: 3 and 24 hours. The protocol:
(§3) High-throughput screening was performed using a non-invasive bioluminescence imaging in human colorectal cancer cell lines that stably express a p53-regulated luciferase reporter. Cells were seeded in 96-well plates (Greiner Bio-One) at a density of 1×10^4 cells per well. p53 transcriptional activity was imaged using an IVIS imaging system for a period of 3-4 hours.
(§4) Cell-based screening of p53 transcriptional activity for small molecule CB002 was accomplished using noninvasive bioluminescence imaging in human colorectal cancer cell lines SW480, DLD-1, DLD-1 p73^−/−, HCT116, and HCT116 p53^−/−. These cell lines stably express a p53 reporter, PG13-luc. Cells were seeded in opaque 96-well culture at a density of 5×10^4 cells/well. The cells were treated with CB002 at ranging doses with DMSO controls. Bioluminescence in cells was imaged for p53 transcriptional activity at 2 hours and 24 hours using IVIS imaging system (Xenogen).
(§5) In order to identify small molecules that could restore the p53 signaling pathway, 50,000 small molecules from the Chembridge Library were screened using a firefly luciferase human p53 reporter assay system. SW480 colorectal cancer cells that stably express the human p53 reporter were treated with compounds at various concentrations from 0-100 μM for 2 and 24 hours. […] To further validate the effects of CB002, the screening was expanded by testing effects on p53-dependent reporter activity in DLD-1, wild-type HCT116, and p53-null colorectal cancer HCT116 cell lines. […] Referring to FIG. 1, representative images of luciferase-based p53-reporter activity assays are shown at 3 hours (Panel A). Quantification of the luciferase-based p53-reporter activity assays in three different cell lines incubated from 3-24 hours with CB002 are shown (Panels B-D). p53-reporter activity assays are shown at 2 hours for HCT116 p53-null cells (Panel E).

Assay [5] concerns p53 reporter (PG13-luc) in HCT116 p53-null cells. Nature of the assay: luciferase-based p53-reporter activity assay. It is filed as cell-based, human. The note with it: 3 and 24 hours. How it is done:
as §3, §4, §5

In assay [6] the test system is p53 reporter (PG13-luc) in wild-type HCT116 cells. Nature of the assay: luciferase-based p53-reporter activity assay. The note with it: 3 and 24 hours. It is filed as cell-based, human. How it is done: as §3, §4, §5
Assay [7] has as its system SW480 NOXA stable knockdown cells. Nature of the assay: apoptosis assay, sub-G1 analysis. The conditions noted are these: 96 μM, 48 hours, NOXA stably knocked down; DMSO 3.93%. Format: cell-based, human. How it is done:
A NOXA shRNA plasmid construct was amplified according to the manufacturer's recommendation (TRC Lentiviral Human PMAIP1 shRNA, Dharmacon). Plasmid DNA was isolated using the PureLink® HiPure Plasmid Filter Maxiprep Kit (Invitrogen) according to the manufacturer's instructions. Lentivirus production was performed by transfecting HEK293T cells at a density of 8×10^6 cells per 10 cm dish with 1.6 μg pMD2.G envelope plasmid, 3.2 μg psPAX2 packaging vector, 3.2 μg plasmid DNA, and 24 μL of Lipofectamine® Transfection reagent 2000 (Life Technologies) in a total volume of reaction of 1 mL of antibiotic free DMEM media for a period of 6-10 hours. Media was then replaced with antibiotic free DMEM. Lentiviral particles were collected between 48-72 hours. SW480 cells ([…] in a 12-well plate) were infected 1:1 (virus containing media: antibiotic free DMEM media, total volume 1 mL) for a period of 24 hours. Then, media was replaced with DMEM complete media for an additional 24 hours. At this point, cells were split and seeded (20% confluent) for selection in a 10 cm dish with puromycin (2.5 μg/mL)-containing complete DMEM media and cultured for 10 days. Puromycin containing complete media was replaced every 2-3 days. Puromycin-resistant clones were screened for knockdown of NOXA by Western blot analysis with NOXA antibody.
Apoptotic cells were quantified by sub-G1 analysis. […]

Assay [8] has as its system autophagic vacuoles in DLD-1 cells. The experiment in a line: CYTO-ID autophagy detection kit. Format: cell-based, human. The conditions noted are these: 50 μM, 24 hours, versus DMSO.

SMILES strings stand for the structures.

Take `Cn1c(=O)c2[nH]c(Nc3ccccc3)nc2n(C)c1=O` [CB002, 8-anilino-1,3-dimethyl-3,7-dihydro-1H-purine-2,6-dione]: in assay [1] (versus SW480, DLD-1, HCT116 and HCT116 p53-null), the “IC50 in Wi38 cells compared with colorectal cancer cells” value is recorded as “much higher”. The half-maximal inhibitory concentration (IC50) in assay [1] (Homo sapiens, WI-38, WI38 (normal), GraphPad) was 642 µM; in assay [2] it was about 650 µM; in assay [3] it was 96 to 400 µM. Moreover, the p53 reporter activity entry in assay [4], in assay [5] and in assay [6] was “induced in a dose-dependent manner” throughout. In addition, in assay [7], the sub-G1 content is given as 3.7%. For the same molecule, the autophagic vacuole-specific staining entry in assay [8] was “increase in autophagic vacuole-specific staining”.

In general, IC50 refers to the concentration that gives 50% inhibition. High values mean lower potency, low ones higher potency.

Values taken from US11203598B2, “Compounds for repressing cancer cell growth” (Institute For Cancer Research, priority 2018, dated 2021).
